Experimental data published in the supplement of paper PMC10307832.

Columns and labels:
Test in all cases: relative viability (nuclei count vs DMSO), 5 days (fraction); higher = more cells survive
[1] = compound: C1CSC2=C(C(=O)N1)SC3=C2C=C(C=C3)O [kb NB 142-70] + CS(=O)(=O)N1CCN(Cc2cc3nc(-c4cccc5[nH]ncc45)nc(N4CCOCC4)c3s2)CC1 [Pictilisib] (partner 1 µM)
Outline: (§1)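 The day after seeding in 1536-well plates, lung cancer cell lines were treated by pin tool with a single drug, or with a fixed anchor-drug dose together with five library-drug doses (not always all listed) in √10 steps. After 5 days, a combined fix-and-stain solution (final 0.05% Triton X-100, 1% formaldehyde, 1 ug/ml Hoechst) was added. Nuclei counted on 4× images gave relative viability as treated counts over vehicle counts, reported as the median of duplicate plates.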

[2] = compound: NCC(=O)Nc1ccc(-n2nc(C(F)(F)F)cc2-c2ccc3c(ccc4ccccc43)c2)cc1 + CS(=O)(=O)CCNCc1ccc(-c2ccc3ncnc(Nc4ccc(OCc5cccc(F)c5)c(Cl)c4)c3c2)o1 [Lapatinib] (partner 2 µM)
Outline: as §1

[3] = compound: NCC(=O)Nc1ccc(-n2nc(C(F)(F)F)cc2-c2ccc3c(ccc4ccccc43)c2)cc1 + N=C(N)NC(=N)NCCc1ccccc1 [Phenformin] (partner 250 µM)
Outline: as §1

[4] = compound: NCC(=O)Nc1ccc(-n2nc(C(F)(F)F)cc2-c2ccc3c(ccc4ccccc43)c2)cc1 + NC(=O)Nc1cc(-c2cccc(F)c2)sc1C(=O)N[C@H]1CCCNC1 [AZD7762] (partner 0.2 µM)
Outline: as §1

Row | Cell Line | relative viability ([1]; first compound 0.1 µM) | relative viability ([1]; first compound 1 µM) | relative viability ([1]; first compound 3.162 µM) | relative viability ([2]; first compound 0.02 µM) | relative viability ([2]; first compound 0.06325 µM) | relative viability ([2]; first compound 0.2 µM) | relative viability ([2]; first compound 0.6325 µM) | relative viability ([2]; first compound 2 µM) | relative viability ([3]; first compound 0.02 µM) | relative viability ([3]; first compound 0.06325 µM) | relative viability ([3]; first compound 0.2 µM) | relative viability ([3]; first compound 0.6325 µM) | relative viability ([3]; first compound 2 µM) | relative viability ([4]; first compound 0.02 µM) | relative viability ([4]; first compound 0.06325 µM) | relative viability ([4]; first compound 0.2 µM) | relative viability ([4]; first compound 0.6325 µM) | relative viability ([4]; first compound 2 µM)
1 | HCC-44 | 0.566 | 0.622 | 0.646 | 1.02 | 1.16 | 0.974 | 1.03 | 1.05 | 0.308 | 0.252 | 0.25 | 0.202 | 0.284 | 1 | 1.05 | 0.997 | 1.01 | 1.03
2 | HCC-827 | 0.832 | 1.13 | 0.781 | 0.178 | 0.201 | 0.172 | 0.199 | 0.23 | 0.397 | 0.431 | 0.406 | 0.385 | 0.385 | 0.213 | 0.189 | 0.245 | 0.316 | 0.235
3 | NCI-H1623 | – | – | – | – | – | – | – | – | 0.604 | 0.671 | 0.6 | 0.577 | 0.555 | – | – | – | – | –
4 | NCI-H2347 | 0.874 | 0.659 | 0.324 | 0.883 | 0.939 | 0.955 | 1.03 | 0.884 | 0.51 | 0.394 | 0.547 | 0.386 | 0.281 | 0.719 | 0.696 | 0.756 | 0.817 | 0.75
5 | PC-14 | 0.679 | 0.795 | 0.58 | 0.381 | 0.277 | 0.305 | 0.305 | 0.37 | 0.553 | 0.64 | 0.543 | 0.57 | 0.642 | 0.419 | 0.367 | 0.36 | 0.328 | 0.381
6 | NCI-H1651 | 0.563 | 0.497 | 0.344 | 0.715 | 0.758 | 0.782 | 0.909 | 0.85 | 0.313 | 0.387 | 0.327 | 0.371 | 0.313 | 0.447 | 0.433 | 0.513 | 0.47 | 0.423
7 | HARA | 0.476 | 0.372 | 0.381 | 0.649 | 0.801 | 0.829 | 0.822 | 0.989 | 0.479 | 0.407 | 0.456 | 0.441 | 0.53 | 0.227 | 0.429 | 0.304 | 0.392 | 0.473
8 | NCI-H1650 | 0.577 | 0.539 | 0.613 | 0.812 | 0.797 | 0.472 | 0.801 | 0.929 | 0.426 | 0.49 | – | 0.515 | 0.449 | – | – | – | – | –
9 | NCI-H1395 | 0.901 | 0.687 | 0.6 | 1.15 | 1.02 | 0.928 | 1.08 | 1.04 | 0.5 | 0.422 | 0.434 | 0.469 | 0.475 | 0.373 | 0.421 | 0.37 | 0.407 | 0.38
10 | LU99A | 0.305 | 0.294 | 0.298 | 0.943 | 1.13 | 1.07 | 0.987 | 0.944 | 0.76 | 0.877 | 0.908 | 0.824 | 0.921 | 0.333 | 0.387 | 0.389 | 0.341 | 0.355
11 | NCI-H1355 | 0.491 | 0.428 | 0.425 | 1 | 1.05 | 1.08 | 0.951 | 1.05 | 0.465 | 0.497 | 0.419 | 0.483 | 0.522 | 0.717 | 0.776 | 0.797 | 0.776 | 0.806
12 | HCC-78 | 0.213 | 0.216 | 0.181 | 0.819 | 1.04 | 0.745 | 0.742 | 0.342 | 0.758 | 0.691 | 0.713 | 0.649 | 0.714 | 0.77 | 0.597 | 0.599 | 0.668 | 0.642
13 | NCI-H1563 | 0.654 | 0.674 | 0.634 | 0.841 | 0.998 | 0.758 | 0.945 | 0.909 | 0.606 | 0.664 | 0.658 | 0.633 | 0.712 | – | – | – | – | –
14 | HCC-15 | 0.746 | 0.79 | 0.56 | 0.847 | 0.876 | 0.839 | 0.821 | 0.812 | 0.438 | 0.497 | 0.476 | 0.497 | 0.506 | 1.28 | 1.13 | 1.21 | 1.36 | 1.06
15 | EKVX | 0.413 | 0.465 | 0.438 | 0.213 | 0.216 | 0.228 | 0.223 | 0.203 | 0.228 | 0.273 | 0.218 | 0.236 | 0.219 | 0.748 | 0.823 | 0.651 | 0.607 | 0.738
16 | NCI-H2087 | 0.905 | 0.75 | 0.576 | 1.02 | 0.988 | 1.02 | 1.11 | 1.15 | 0.455 | 0.583 | 0.441 | 0.48 | 0.47 | 1.29 | 1.24 | 1.31 | 1.36 | 1.23
17 | LK-2 | 0.483 | 0.42 | 0.183 | 0.966 | 1.06 | 0.884 | 1 | 0.874 | 0.31 | 0.638 | 0.425 | 0.496 | 0.435 | 0.459 | 0.47 | 0.402 | 0.493 | 0.381
18 | NCI-H1437 | 0.406 | 0.459 | 0.37 | 0.768 | 0.76 | 0.751 | 0.84 | 0.78 | 0.247 | 0.302 | 0.331 | 0.308 | 0.339 | 0.974 | 1.21 | 1.13 | 1.1 | 1.11
19 | COR-L23 | 0.765 | 0.807 | 0.251 | 0.97 | 0.997 | 1.2 | 0.938 | 0.659 | 0.394 | 0.434 | 0.439 | 0.44 | 0.417 | – | – | – | – | –
